This note sets out measurements from US11111251B2, “Positive allosteric modulators of the muscarinic acetylcholine receptor M1” (Vanderbilt University, priority 2016, dated 2021).

For the test, the target named is T1, human mAChR M1 (Homo sapiens, UniProt P11229).
T1 sequence (P11229 1-460): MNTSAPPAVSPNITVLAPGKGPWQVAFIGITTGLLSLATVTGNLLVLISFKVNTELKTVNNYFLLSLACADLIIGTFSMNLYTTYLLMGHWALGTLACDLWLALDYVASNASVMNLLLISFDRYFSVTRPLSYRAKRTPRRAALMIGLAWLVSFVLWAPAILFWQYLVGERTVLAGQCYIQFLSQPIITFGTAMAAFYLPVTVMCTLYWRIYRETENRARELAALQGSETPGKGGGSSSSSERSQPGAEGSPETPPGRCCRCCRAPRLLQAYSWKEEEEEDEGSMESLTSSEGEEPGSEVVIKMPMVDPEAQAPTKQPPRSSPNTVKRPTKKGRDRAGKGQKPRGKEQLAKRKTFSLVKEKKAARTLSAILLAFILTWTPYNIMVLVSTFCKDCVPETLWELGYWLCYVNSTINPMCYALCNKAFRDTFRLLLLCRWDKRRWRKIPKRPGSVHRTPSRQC
Kind of test: mAChR M1 cell-based functional assay: calcium mobilization, positive allosteric modulator mode (increase in EC20 acetylcholine response). To be noted: for Emax: read-out: Human M1 Emax (%). The method, boiled down: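 Calcium-flux assay in CHO-K1 cells stably expressing human M1, loaded with Fluo-4 AM (50 min, 37 °C) and read at 1 Hz. Compound (11-point, 1:3 series) was added at 4 s, EC20 acetylcholine at 144 s and EC80 at 230 s. PAM activity is the concentration-dependent rise in the EC20 response, fitted with a four-parameter logistic.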
For orientation: A change in cytosolic calcium serves as a functional read-out for many receptors and channels.

[1] abbreviates: Table 2, human M1, read-out: Human M1 EC50.

pEC50: −log10 of the molar value. Where two headings read alike, the source gives them in different places.

In general, pEC50 refers to the EC50 on a negative log10 scale, so that one unit is a factor of ten. The Emax is the size of the effect at its maximum, as opposed to the concentration needed. As for `Cn1ccc2nc(C(=O)N[C@H]3CCOC[C@@H]3O)cc(Cc3ccc(-n4cccn4)cc3)c21` [Compound 453, N-[(3R,4S)-3-hydroxytetrahydropyran-4-yl]-1-methyl-7-[(4-pyrazol-1-ylphenyl)methyl]pyrrolo[3,2-b]pyridine-5-carboxamide], under setting [1], the pEC50 is 8.17. Besides, the Emax (Table 2, human M1) is 63.1%.

Consider `COCCCNC(=O)c1cc(Cc2ccc(-n3cccn3)cc2)c2sccc2n1` [Compound 430, N-(3-methoxypropyl)-7-[(4-pyrazol-1-ylphenyl)methyl]thieno[3,2-b]pyridine-5-carboxamide], for which, under setting [1], the pEC50 is 5.97. The Emax (Table 2, human M1) was found to be 72.9%.

`Cn1ccc2nc(C(=O)NCC3CCOCC3)cc(Cc3ccc(-c4nccs4)cc3)c21` [Compound 486, 1-methyl-N-(tetrahydropyran-4-ylmethyl)-7-[(4-thiazol-2-ylphenyl)methyl]pyrrolo[3,2-b]pyridine-5-carboxamide]: under setting [1], the pEC50 is 6.32. In addition, the Emax (Table 2, human M1) came out at 37.5%.

Regarding `Cn1cc(-c2ccc(Cc3cc(C(=O)NC4CCOC(C)(C)C4)nc4ccn(C)c34)cn2)cn1` (centres unmarked) [Compound 472, N-(2,2-dimethyltetrahydropyran-4-yl)-1-methyl-7-[[6-(1-methylpyrazol-4-yl)-3-pyridyl]methyl]pyrrolo[3,2-b]pyridine-5-carboxamide], the pEC50 under setting [1] was 6.37. Besides, the Emax (Table 2, human M1) came out at 85.6%.

With `Cn1cc(-c2ccc(Cc3cc(C(=O)N[C@H]4CCOC[C@@H]4O)nc4ccsc34)cc2)cn1` [Compound 267, N-[(3R,4S)-3-hydroxytetrahydropyran-4-yl]-7-[[4-(1-methylpyrazol-4-yl)phenyl]methyl]thieno[3,2-b]pyridine-5-carboxamide], the pEC50 under setting [1] is 8.47. Besides, the Emax (Table 2, human M1) was determined as 50.9%.

For `Cn1ccc(-c2ccc(Cc3cc(C(=O)NC4CC5(COC5)C4)nc4ccn(C)c34)cc2)n1` [Compound 475, 1-methyl-7-[[4-(1-methylpyrazol-3-yl)phenyl]methyl]-N-(2-oxaspiro[3.3]heptan-6-yl)pyrrolo[3,2-b]pyridine-5-carboxamide], the negative-log EC50 (pEC50) under setting [1] is 6.74. The Emax (Table 2, human M1) amounted to 83.5%.

On to `O=C(NC1CCOCC1)c1cc(Cc2ccc(C(F)(F)F)nc2)c2sccc2n1` [Compound 89, N-tetrahydropyran-4-yl-7-[[6-(trifluoromethyl)-3-pyridyl]methyl]thieno[3,2-b]pyridine-5-carboxamide], for which, under setting [1], the pEC50 was 5.76. Moreover, under “Table 2, human M1”, the Emax was 71.8%.

In the case of `Cn1cc(-c2ccc(Cc3cc(C(=O)N[C@H]4CCCC[C@@H]4O)nc4ccn(C)c34)cn2)cn1` [Compound 469, N-[(1S,2S)-2-hydroxycyclohexyl]-1-methyl-7-[[6-(1-methylpyrazol-4-yl)-3-pyridyl]methyl]pyrrolo[3,2-b]pyridine-5-carboxamide], the pEC50 under setting [1] was 7.53. The Emax (Table 2, human M1) was 72.3%.

As to `Cc1nc(-c2ccc(Cc3cc(C(=O)N[C@H]4CCC[C@@H]4O)nc4c(C)csc34)cc2)co1` [Compound 331, N-[(1S,2S)-2-hydroxycyclopentyl]-3-methyl-7-[[4-(2-methyloxazol-4-yl)phenyl]methyl]thieno[3,2-b]pyridine-5-carboxamide], under setting [1], the pEC50 was 6.43. Moreover, the Emax (Table 2, human M1) stood at 69.7%.

In the case of `CN1CCC(NC(=O)c2cc(Cc3ccc(-n4cccn4)cc3)c3sccc3n2)CC1` [Compound 443, N-(1-methyl-4-piperidyl)-7-[(4-pyrazol-1-ylphenyl)methyl]thieno[3,2-b]pyridine-5-carboxamide], under setting [1], the pEC50 was 5.83. In addition, where the note is “Table 2, human M1”, the Emax turned out to be 66.6%.

`Cc1ccc(Cc2cc(C(=O)NC3(C#N)CC3)nc3ccsc23)cn1` [Compound 257, N-(1-cyanocyclopropyl)-7-[(6-methyl-3-pyridyl)methyl]thieno[3,2-b]pyridine-5-carboxamide]: the pEC50 under setting [1] was < 5.00. In addition, the Emax (Table 2, human M1) worked out at 26.4%.

Turning to `C[C@H]1COCC[C@@H]1NC(=O)c1cc(Cc2ccc(-c3cncs3)cc2)c2sccc2n1` [Compound 393, N-[(3R,4S)-3-methyltetrahydropyran-4-yl]-7-[(4-thiazol-5-ylphenyl)methyl]thieno[3,2-b]pyridine-5-carboxamide], the pEC50 under setting [1] is 5.87. Moreover, the Emax (Table 2, human M1) was found to be 68.7%.

Consider `Cn1cc(-c2ccc(Cc3cc(C(=O)N[C@H]4CCOC[C@@H]4O)nc4ccsc34)c(F)c2)cn1` [Compound 52, 7-[[2-fluoro-4-(1-methylpyrazol-4-yl)phenyl]methyl]-N-[(3R,4S)-3-hydroxytetrahydropyran-4-yl]thieno[3,2-b]pyridine-5-carboxamide], for which the pEC50 under setting [1] was 5.71. Moreover, the Emax (Table 2, human M1) worked out at 76%.

In the case of `O=C(NC1CCCNC1=O)c1cc(Cc2ccc(C(F)(F)F)nc2)c2sccc2n1` (centres unmarked) [Compound 97, N-(2-oxo-3-piperidyl)-7-[[6-(trifluoromethyl)-3-pyridyl]methyl]thieno[3,2-b]pyridine-5-carboxamide], the pEC50 under setting [1] was < 5.00. In addition, for the setting “Table 2, human M1”, the Emax was found to be 75.2%.

Consider `O=C(N[C@@H]1CCCCC[C@H]1O)c1cc(Cc2ccc(C(F)(F)F)nc2)c2sccc2n1` [Compound 94], for which the pEC50 under setting [1] was 5.90. Further, the Emax (Table 2, human M1) is 84.6%.

With `CC(C)(C)N1CC(NC(=O)c2cc(Cc3ccc(-c4cscn4)cc3)c3sccc3n2)C1` [Compound 203, N-(1-tert-butylazetidin-3-yl)-7-[(4-thiazol-4-ylphenyl)methyl]thieno[3,2-b]pyridine-5-carboxamide], under setting [1], the pEC50 was 5.66. The Emax (Table 2, human M1) worked out at 75.3%.

`CC1CC(NC(=O)c2cc(Cc3ccc(-c4nccs4)cc3)c3sccc3n2)CC(C)O1` (centres unmarked) [Compound 386, N-(2,6-dimethyltetrahydropyran-4-yl)-7-[(4-thiazol-2-ylphenyl)methyl]thieno[3,2-b]pyridine-5-carboxamide]: under setting [1], the pEC50 was 5.72. Further, for the setting “Table 2, human M1”, the maximum response (Emax) is 66.1%.

Regarding `Cc1csc2c(Cc3ccc(-c4ccn(C)n4)cc3)cc(C(=O)NCC3CCOC3)nc12` (centres unmarked) [Compound 311, 3-methyl-7-[[4-(1-methylpyrazol-3-yl)phenyl]methyl]-N-(tetrahydrofuran-3-ylmethyl)thieno[3,2-b]pyridine-5-carboxamide], the pEC50 under setting [1] is 6.15. In addition, the Emax (Table 2, human M1) stood at 77.1%.

As for `Cc1nc(-c2ccc(Cc3cc(C(=O)N[C@@H]4CC[C@H]4O)nc4ccsc34)cc2)cs1` [Compound 176, N-[(1R,2R)-2-hydroxycyclobutyl]-7-[[4-(2-methylthiazol-4-yl)phenyl]methyl]thieno[3,2-b]pyridine-5-carboxamide], under setting [1], the pEC50 was 6.44. Further, the Emax (Table 2, human M1) is 93.2%.

For the compound `Cn1cc(-c2ccc(Oc3cc(C(=O)NC4CC[C@H]4O)nc4ccsc34)c(F)c2)cn1` (stereo partly drawn) [Compound 5, 7-[2-fluoro-4-(1-methylpyrazol-4-yl)phenoxy]-N-[(2R)-2-hydroxycyclobutyl]thieno[3,2-b]pyridine-5-carboxamide], the pEC50 (Table 1, mAChR M1 cell-based functional assay, PAM mode, species not given, read-out: EC50) is < 5.00.

With `O=C(N[C@H]1CCCC[C@@H]1O)c1cc(Cc2c(F)cc(-c3cscn3)cc2F)c2sccc2n1` [Compound 273, 7-[(2,6-difluoro-4-thiazol-4-yl-phenyl)methyl]-N-[(1S,2S)-2-hydroxycyclohexyl]thieno[3,2-b]pyridine-5-carboxamide], the pEC50 under setting [1] is 6.57. Moreover, the Emax (Table 2, human M1) stood at 73.6%.

In the case of `Cc1ncc(Cc2cc(C(=O)N[C@@H]3CCCCC[C@H]3O)nc3ccsc23)s1` [Compound 140, N-[(1R,2R)-2-hydroxycycloheptyl]-7-[(2-methylthiazol-5-yl)methyl]thieno[3,2-b]pyridine-5-carboxamide], under setting [1], the pEC50 is 6.51. Besides, the Emax (Table 2, human M1) amounted to 82.8%.

As to `Cc1nc(-c2ccc(Cc3cc(C(=O)N4CCC(C)(O)CC4)nc4ccsc34)cc2)co1` [Compound 174, (4-hydroxy-4-methyl-1-piperidyl)-[7-[[4-(2-methyloxazol-4-yl)phenyl]methyl]thieno[3,2-b]pyridin-5-yl]methanone], the pEC50 under setting [1] is < 5.00. Besides, the Emax (Table 2, human M1) stood at 45.1%.

Take `O=C(N[C@@H]1CC[C@H]1O)c1cc(Cc2ccc(-n3cccn3)cc2)c2sccc2n1` [Compound 227, N-[(1R,2R)-2-hydroxycyclobutyl]-7-[(4-pyrazol-1-ylphenyl)methyl]thieno[3,2-b]pyridine-5-carboxamide]: under setting [1], the pEC50 is 6.90. Moreover, for the setting “Table 2, human M1”, the Emax was found to be 79.8%.

Take `Cc1csc2c(Cc3ccc(-n4cccn4)cc3)cc(C(=O)N[C@H]3CCOC[C@@H]3O)nc12` [Compound 269, N-[(3R,4S)-3-hydroxytetrahydropyran-4-yl]-3-methyl-7-[(4-pyrazol-1-ylphenyl)methyl]thieno[3,2-b]pyridine-5-carboxamide]: the pEC50 under setting [1] is 7.63. Besides, the Emax (Table 2, human M1) is 77.6%.

Regarding `Cn1ccc(-c2ccc(Cc3cc(C(=O)NC4CCOC(C)(C)C4)nc4ccsc34)cn2)n1` (centres unmarked) [Compound 378, N-(2,2-dimethyltetrahydropyran-4-yl)-7-[[6-(1-methylpyrazol-3-yl)-3-pyridyl]methyl]thieno[3,2-b]pyridine-5-carboxamide], under setting [1], the pEC50 is 6.78. Besides, the Emax (Table 2, human M1) was 58.9%.

In the case of `CC(C)(C#N)NC(=O)c1cc(Cc2ccc(-n3cccn3)cc2)c2sccc2n1` [Compound 283, N-(1-cyano-1-methyl-ethyl)-7-[(4-pyrazol-1-ylphenyl)methyl]thieno[3,2-b]pyridine-5-carboxamide], the pEC50 under setting [1] is < 5.00. The Emax (Table 2, human M1) worked out at 43.1%.
